From patent US20240180841A1, “ENTERIC TABLET CONTAINING DIMETHYL FUMARATE” (CURACLE CO., LTD., priority 2019, published 2024) come the findings set out here.

Where a name gives a salt, the structure may show the parent alone.

This data set is described as follows: Weight loss rate at 60° C. for 2 weeks (sublimation). The format is physicochemical. Conditions: drying and sublimation. The protocol:
Dimethyl fumarate has a property of being lost by sublimation depending on the storage temperature. Accordingly, in order to confirm the degree of weight loss according to the coating drying temperature, the degree of weight loss was repeatedly evaluated for 2 weeks at a temperature of 60° C. for dimethyl fumarate and a mixture thereof. At this time, the mixture of dimethyl fumarate was a mixture in which dimethyl fumarate and other pharmaceutically acceptable additives were mixed.

As for `COC(=O)/C=C/C(=O)OC` [dimethyl fumarate, Dimethyl fumarate], the “Weight loss in words” value was “continued to lose weight”.
